Measured values reported in patent publication US7329485B2, “Methods for detecting compounds that interfere with protein aggregation utilizing an in vitro fluorescence-based assay” (priority 2005, dated 2008).
Entries after “also recorded” stand apart in the source; their conditions may differ.

How the values were obtained:
HBV core protein = HBV core protein (Hepatitis B virus genotype D subtype adw, UniProt P03147); design: concentration leading to formation of aberrant particles: unit not given here; conditions: Stray et al., 2005, cited from earlier work
HBV capsid (C150BO) [1] = biological target: T1, HBV capsid (C150BO) (Hepatitis B virus genotype D subtype adw, UniProt P03147, C107A/C48A/C61A); test: BODIPY-FL fluorescence quenching assay of C150BO capsid assembly, compared to size-exclusion chromatography; assay type: biochemical, HBV strain adyw; conditions: for effect on C150BO assembly (fluorescence, size-exclusion chromatography): 3 μM C150BO, 21° C.; for effect on assembly and quenching in mock assembly reactions: mock-assembled, low salt / no NaCl, time not stated; for effect on fluorescence of mock-assembled C150BO dimer (intrinsic quenching control): early times (up to 2 h)
T1 construct: For fluorescent labeling, the mutant C150 (Zlotnick et al., 1997); made in house; host or cells: E. coli
Method: Mutagenesis: For simplicity of chemical labeling, the cysteine residues (C48, C61 and C107) in the assembly domain of HBV strain adyw core protein (amino acids 1-149 (Zlotnick et al., 1996), core protein 149) were mutated to alanine, inserting a unique cysteine residue at the C terminus (C150). Mutagenesis was performed using QuikChange Multi (Stratagene). Mutagenic primers are described in Table III (IDT DNA technologies). Mutations were confirmed by dye terminator dideoxy sequencing (DNA Sequencing Core, Oklahoma Medical Research Foundation). The resulting mutant protein is referred to herein as C150.
Protein expression, purification and dye labeling: Wild-type and mutant truncated HBV capsid protein dimers were expressed and purified from E. coli as described in Zlotnick et al., 1996 and Zlotnick et al., 2002. Protein was quantified by absorbance at 280 nm (ε=60,900 M^−1 cm^−1). DTT levels were maintained at 5 mM throughout purification and storage. Immediately before derivatization, C150 protein was removed from storage buffer by chromatography over a G25 PD10 desalting column (Amersham Biosciences) equilibrated with ice-cold 50 mM HEPES pH 7.5 without DTT. Peak fractions were reacted with BODIPY-FL maleimide (Invitrogen/Molecular Probes) on ice at a final concentration of 4 mM from a 20 mM BODIPY-FL stock in DMSO. Most complete labeling was achieved by overnight reaction, although significant labeling could be achieved by reaction for as little as 10 min. Unreacted dye was removed by separation over a G25 PD10 desalting column equilibrated in ice-cold 50 mM HEPES, pH 7.5. The degree of dye labeling was determined using absorbance at 504 nm (ε504=73,000 M^−1 cm^−1, ε280=1,300 M^−1 cm^−1). The extinction coefficient was calculated by determining the degree of labeling of BODIPY-FL-labeled C150 preps by MALDI-TOF mass spectrometry. Yield of BODIPY-FL-labeled C150 was typically on the order of 1.9 moles of dye per mole of dimer. Labeling of C150 with fluorescein maleimide was compared to BODIPY-FL; BODIPY-FL conjugates gave a much stronger assembly-dependent change in fluorescence than did fluorescein.
Fluorescence and light scattering: Assembly was monitored by fluorescence using a SPEX Fluoromax-2 fluorometer (Horiba Jobin Yvon), using a 0.3-cm path-length cuvette (Hellma) or in black 96-well COSTAR fluorescence microtiter plates (Corning) using a MicroMax adaptor. Assembly reactions were performed at 21° C. Assembly was initiated manually by mixing core protein in 50 mM HEPES, pH 7.5, with buffered NaCl (Sigma) as appropriate. Fluorescence was excited at 504 nm and emission was measured at 509 nm (1-nm band pass for each). For static measurements, all measurements were recorded in triplicate. Qualitatively similar results were obtained using excitation at 495 nm and emission at 512 nm (commonly used for fluorescein fluorescence). Measuring fluorescence of the same reactions in either a cuvette or a 96-well fluorescence microtiter plate gave identical quenching values.
Size-exclusion chromatography: Assembly reactions were examined by SEC on a Superose 6 10/30 column (Amersham Biosciences) mounted on a Shimadzu high-performance liquid chromatography system equipped with an auto injection module (Shimadzu). The column was equilibrated with 50 mM HEPES, pH 7.5, 50 mM NaCl. Recovered protein was assigned either to the void (6.5-7.0 ml), capsid (7.0-8.3 ml), dimer (15-16.5 ml) or intermediate elution (8.3-15 ml).

HBV capsid (C150BO) [2] = biological target: T1, HBV capsid (C150BO); test: Example 2 in vitro assembly reactions with labeled capsid polypeptide C150BO, plate reader; assay type: biochemical; conditions: % assembly at 1 hour (FIG. 7); conditions induced 25% (±5%) assembly in the absence of drugs
Method: The assays were carried out as described in Example 1, except as described herein after. Samples were read in 3 minute intervals for one hour and again at 24 hours using a Tecan filter-based plate reader with a standard fluorescein filter set.
FIG. 7 illustrates a typical experiment comparing different compounds, including some heteroaryldihydropyrimidine (HAP) derivatives. In this experiment, assembly conditions induced 25% (±5%) assembly in the absence of drugs.

T1 sequence (P03147 1-150, looked up, stated change not applied): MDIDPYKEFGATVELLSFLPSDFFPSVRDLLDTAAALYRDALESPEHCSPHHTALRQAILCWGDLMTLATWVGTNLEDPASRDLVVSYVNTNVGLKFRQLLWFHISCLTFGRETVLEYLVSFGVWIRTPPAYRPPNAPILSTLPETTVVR
Chain of HBV core protein (P03147 1-149): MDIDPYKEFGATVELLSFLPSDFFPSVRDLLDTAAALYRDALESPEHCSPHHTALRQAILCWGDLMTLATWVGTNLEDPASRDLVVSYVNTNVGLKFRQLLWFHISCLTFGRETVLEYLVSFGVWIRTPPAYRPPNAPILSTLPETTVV

Compound	concentration leading to formation of aberrant particles (HBV core protein; >1 HAP-1 molecule per dimer)	effect on HBV core protein assembly in vitro (HBV core protein; broad range of concentrations)	effect on C150BO assembly (fluorescence, size-exclusion chromatography) (HBV capsid (C150BO) [1]; 150 mM NaCl, 24 h (FIG. 6a))	effect on assembly and quenching in mock assembly reactions (HBV capsid (C150BO) [1])	quenching and assembly in mock-assembled controls (HBV capsid (C150BO) [1]; without NaCl, after 24 h)	effect on fluorescence of mock-assembled C150BO dimer (intrinsic quenching control) (HBV capsid (C150BO) [1]; without NaCl)	effect on % assembly of HBV capsid by fluorescence (HBV capsid (C150BO) [2])	effect on C150BO assembly (fluorescence, size-exclusion chromatography) (HBV capsid (C150BO) [1]; 0.5 M NaCl, 24 h (FIG. 6b))
COC(=O)C1=C(C)NC(c2ccccn2)=NC1c1ccc(F)cc1Cl (stereo not shown) [HAP-1]	≥ 10	enhanced the rate and extent of HBV core protein assembly	enhanced assembly, leading to enhanced quenching; also recorded: substantially increased both the rate and the extent of C150BO assembly	able to induce slow C150BO assembly	showed both BODIPY-FL quenching and assembly by SEC	No reduction in fluorescence; also recorded: no effect on fluorescence		
NC(N)=O [urea]				affected neither assembly nor quenching		No reduction in fluorescence	only showed marginal assembly inhibition	inhibited assembly; also recorded: A decrease in assembly by SEC and an increase in fluorescence
